Reference: patent publication US5231093A, “Carbamate derivatives of 4-amino-3-isoxazolidinones, 3-amino-1-hydroxypyrrolidin-2-ones and 1-amino-1-cyclopropanecarboxylic acid analogs” (priority 1992, dated 1993)
pIC50: −log10 of the molar value. Counter-ions that a name gives are not always drawn. Like-named read-outs stand apart in the source and are kept apart here.

Columns and labels:
[1] = molecular target: T1, acetylcholinesterase (Rattus norvegicus, UniProt P37136); assay: In Vitro Inhibition of Acetylcholinesterase Activity in Rat Striatum; type: biochemical
T1 construct: corpora striata dissected free, weighed and homogenized in 19 volumes; from tissue; host or cells: corpus striatum of male Wistar rats, whole homogenate in 0.05M phosphate buffer pH 7.2
T1 sequence (P37136 32-614): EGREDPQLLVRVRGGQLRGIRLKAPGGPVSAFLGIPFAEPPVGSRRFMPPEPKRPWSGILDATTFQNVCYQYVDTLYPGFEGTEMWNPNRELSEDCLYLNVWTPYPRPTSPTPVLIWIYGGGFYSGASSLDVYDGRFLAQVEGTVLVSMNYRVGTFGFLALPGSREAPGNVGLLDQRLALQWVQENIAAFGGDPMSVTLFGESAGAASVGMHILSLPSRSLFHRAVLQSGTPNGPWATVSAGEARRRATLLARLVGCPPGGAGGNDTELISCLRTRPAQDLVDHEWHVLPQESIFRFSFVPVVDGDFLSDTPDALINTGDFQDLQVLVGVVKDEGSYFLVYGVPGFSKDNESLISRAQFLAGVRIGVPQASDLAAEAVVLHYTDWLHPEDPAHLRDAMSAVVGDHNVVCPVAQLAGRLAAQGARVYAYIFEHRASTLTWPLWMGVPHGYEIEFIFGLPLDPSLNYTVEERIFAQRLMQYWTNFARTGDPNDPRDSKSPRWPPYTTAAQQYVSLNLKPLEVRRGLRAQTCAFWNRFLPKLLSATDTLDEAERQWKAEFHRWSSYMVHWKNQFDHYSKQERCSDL
From the text: Cholinesterases are found throughout the body, both in the brain and in serum. However, only brain acetylcholinesterase (AChE) distribution is correlated with central cholinergic innervation.
The method described below was used in this invention for assaying cholinesterase activity. This is a modification of the method of Ellman et al., Biochem. Pharmacol. 7, 88 (1961).
1. 0.05M Phosphate buffer, pH 7.2
(c) add (a) to (b) until pH reaches 7.2
4. […] Drugs are serially diluted (1:10) such that the final concentration (in cuvette) is 10^-4 M and screened for activity. If active, IC50 values are determined from the inhibitory activity of subsequent concentrations.
Male Wistar rats are decapitated, brains rapidly removed, corpora striata dissected free, weighed and homogenized in 19 volumes (approximately 7 mg protein/ml) of 0.05M phosphate buffer, pH 7.2 using a Potter-Elvehjem homogenizer. A 25 microliter aliquot of the homogenate is added to 1.0 milliter vehicle or various concentrations of the test drug and preincubated for 10 minutes at 37° C.
Enzyme activity is measured with the Beckman DU-50 spectrophotometer. This method can be used for IC50 determinations and for measuring kinetic constants.
Reagents are added to the blank and sample cuvettes as follows:
Blank values are determined for each run to control for non-enzymatic hydrolysis of substrate and these values are automatically subtracted by the kindata program available on kinetics soft-pac module. This program also calculates the rate of absorbance change for each cuvette.
Substrate concentration is 10 mM diluted 1:2 in assay yielding final concentration of 5 mM. DTNB concentration is 0.5 mM yielding 0.25 mM final concentration. [formula] IC50 values are calculated from log-probit analysis

[2] = tested on: Scopolamine Induced Memory Deficit; type: in vivo, mice
Description: In this assay mice are tested for their ability to remember an unpleasant stimulus for a period of 24 hours. A mouse is placed in a chamber that contains a dark compartment; a strong incandescent light drives it to the dark compartment, where an electric shock is administered through metal plates on the floor. The animal is removed from the testing apparatus and tested again, 24 hours later, for the ability to remember the electric shock.
If scopolamine, an anticholinergic agent that is known to cause memory impairment, is administered before an animal's initial exposure to the test chamber, the animal re-enters the dark compartment shortly after being placed in the test chamber 24 hours later. This effect of scopolamine is blocked by an active test compound, resulting in a greater interval before re-entry into the dark compartment.
The results for an active compound are expressed as the percent of a group of animals in which the effect of scopolamine is blocked, as manifested by an increased interval between being placed in the test chamber and re-entering the dark compartment.
Results of this assay for some of the compounds of this invention and those for tacrine (reference compound) are presented in Table 2.

## CN1CC[C@@]2(C)c3cc(OC(=O)N[C@@H]4CCN(OCc5ccccc5)C4=O)ccc3N(C)[C@@H]12 [(3aS-cis)-1,2,3,3a,8,8a-Hexahydro-1,3a,8-trimethylpyrrolo-[2,3-b]indol-5yl [2-oxo-1-(phenylmethoxy)-3R-pyrrolidinyl]carbamate]
[1]
  pIC50: 7.17

## CN1CC[C@@]2(C)c3cc(OC(=O)N[C@@H]4CCN(O)C4=O)ccc3N(C)[C@@H]12 [(3aS-cis)-1,2,3,3a,8,8a-Hexahydro-1,3a,8-trimethylpyrrolo[2,3-b]indol-5-yl [2-oxo-1-(hydroxy)-3R-pyrrolidinyl]carbamate, citrate salt]
[1]
  pIC50: 5.64

## CN1CC[C@@]2(C)c3cc(OC(=O)N[C@@H]4CON(Cc5ccccc5)C4=O)ccc3N(C)[C@@H]12 [(3aS-cis)-1,2,3,3a,8,8a-Hexahydro-1,3a,8-trimethypyrrolo-[2,3-b]indol-5-yl [2-(phenylmethyl)-3-oxo-4R-isoxazolidinyl]-carbamate hemihydrate]
[2]; mice, 0.3 mg/kg of body weight, s.c, 24 hours
  % of Animals with Scopolamine Induced Memory Deficit Reversal: 27%
[1]
  pIC50: 6.30

## Nc1c2c(nc3ccccc13)CCCC2 [Tacrine, reference compound]
[2]; mouse, in vivo, 0.63 mg/kg
  % of Animals with Scopolamine Induced Memory Deficit Reversal: 13%
